Test results from patent US7071215B2 (Pharmacia & Upjohn Company LLC, priority 2002, dated 2006).

assay: binding assay as described in U.S. Pat. No. 5,859,188 (Geary, et al., 1999): displacement of a radiolabelled ligand; conditions: percent displacement of a radiolabelled ligand at 25 micromolar
Method: Selected compounds were evaluated for their anti-parasitic activity in a binding assay as described in U.S. Pat. No. 5,859,188 (Geary, et al., 1999). Results of the evaluations are given in Table 2 wherein “% Inhibition” means percent displacement of a radiolabelled ligand at 25 micromolar as described.

| Compound | % Inhibition |
| --- | --- |
| O=C(CN1CCCCC1)Nc1sc2c(c1C(=O)c1cccc(F)c1)CCSC2 [Compound 56] | 99–100% |
| O=C(CN1CCCC(O)C1)Nc1sc2c(c1C(=O)c1ccc(F)cc1)CCSC2 (stereo not shown) [Compound 53] | 19–20% |
| O=C(CN1CCCC(O)C1)Nc1sc2c(c1C(=O)c1ccc(Cl)cc1)CCOC2 (stereo not shown) [Compound 3, N-[3-(4-chlorobenzoyl)-4,7-dihydro-5H-thieno[2,3-c]pyran-2-yl]-2-(3-hydroxypiperidin-1-yl)acetamide] | 96–97% |
| O=C(CN1CCCCC1)Nc1sc2c(c1C(=O)c1ccc(Cl)cc1)CCOC2 [Compound 1, N-[3-(4-chlorobenzoyl)-4,7-dihydro-5H-thieno[2,3-c]pyran-2-yl]-2-piperidin-1-ylacetamide] | 93–99% |
| O=C(CN1CCCCC1)Nc1sc2c(c1C(O)c1ccc(Cl)cc1)CCOC2 (stereo not shown) [Compound 2, N-{3-[(4-chlorophenyl)(hydroxy)methyl]-4,7-dihydro-5H-thieno[2,3-c]pyran-2-yl}-2-piperidin-1-ylacetamide] | 85–95% |
| O=C(CN1CCCC(O)C1)Nc1sc2c(c1C(O)c1cccs1)CCSC2 (stereo not shown) [Compound 49] | 46–55% |
| O=C(CN1CCCC(O)C1)Nc1sc2c(c1C(O)c1ccc(Cl)cc1)CCSC2 (stereo not shown) [Compound 20] | 86–88% |
| O=C(CN1CCCC(O)C1)Nc1sc2c(c1C(=O)c1cccc(C(F)(F)F)c1)CCSC2 (stereo not shown) [Compound 33] | 92–94% |
| O=C(CN1CCCCCC1)Nc1sc2c(c1C(O)c1ccc(Cl)cc1)CCSC2 (stereo not shown) [Compound 24] | 11–58% |
| Cc1ccc(C(O)c2c(NC(=O)CN3CCCC(O)C3)sc3c2CCSC3)cc1 (stereo not shown) [Compound 40] | 100% |
| O=C(CN1CCCC(O)C1)Nc1sc2c(c1C(=O)c1ccco1)CCSC2 (stereo not shown) [Compound 10] | 21–38% |
| O=C(CN1CCCC(O)C1)Nc1sc2c(c1C(O)c1ccc(Cl)cc1)CCOC2 (stereo not shown) [Compound 4, N-{3-[(4-chlorophenyl)(hydroxy)methyl]-4,7-dihydro-5H-thieno[2,3-c]pyran-2-yl}-2-(3-hydroxypiperidin-1-yl)acetamide] | 72–84% |
| Cc1ccc(C(=O)c2c(NC(=O)CN3CCCC(O)C3)sc3c2CCSC3)cc1 (stereo not shown) [Compound 28] | 11–79% |
| O=C(CN1CCCCC1)Nc1sc2c(c1C(=O)c1cccs1)CCSC2 [Compound 37] | 0–66% |
| O=C(CN1CCCC(O)C1)Nc1sc2c(c1C(=O)c1ccc(F)c(F)c1)CCSC2 (stereo not shown) [Compound 55] | 100% |
| O=C(CN1CCCC(O)C1)Nc1sc2c(c1C(O)c1ccc(F)cc1)CCSC2 (stereo not shown) [Compound 54] | 93–97% |
